# Reference: patent US20220257774A1, “AROMATIC AMINE AR AHD BET TARGETING PROTEIN DEGRADATION CHIMERA COMPOUND AND USE” (HINOVA PHARMACEUTICALS INC., priority 2019, published 2022)
# Where two headings read alike, the source gives them in different places.
# Assays:
# LNCaP/AR cells = test: Inhibition of the proliferation of LNCap/AR cells (CCK-8); assay type: cell-based; conditions: read-out: LNCap/AR IC50
# Method in brief: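 Proliferation was read by CCK-8 (OD 450 nm, 1 h) after six days of compound exposure. Cells were seeded at 1000 per well overnight, then dosed in duplicate over nine 3-fold steps with a top final concentration of 10 μM in 0.1% DMSO; IC50 was fitted from inhibition curves.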
# 22RV1 cells = test: Inhibition of the proliferation of drug-resistant prostate cancer cell 22RV1 (CCK-8); assay type: cell-based; conditions: 22RV1 cells (enzalutamide-resistant), same method
# Method: (1) Experimental materials and instruments: LNCaP/AR cell line and 22RV1 cell line (provided by Sichuan Kangcheng Biotechnology Co., Ltd.) Fetal bovine serum FBS (Gibco, Cat. No. 10099-141) 0.01M PBS (Biosharp, Cat. No. 162262) RIPM1640 medium (Hyclone, Cat. No. 308090.01) Penicillin-Streptomycin (Hyclone, Cat. No. SV30010) Cell counting kit-8 (Signalway Antibody, Cat. No. CP002) DMSO (Sigma, Cat. No. D5879) Centrifuge Tube, 15 ml (Excell Bio, Cat. No. CS015-0001) Cell Culture Dish, (Excell Bio, Cat. No. CS016-0128) 96-well cell culture plate (Corning, Cat. No. 3599) Microplate reader (Thermo Multiskan MK3 type)
# a. Preparation of Buffer Cell culture medium: RIPM1640 medium, 10% FBS, 1% Pen Strep: PBS buffer: PBS powder was dissolved in 2 L of ultrapure water and sterilized. b. Experimental Procedures 1) LNCaP/AR cells were subcultured in cell culture media, and then the cells in good growth condition were seeded in a 96-well plate at 80 μL/well (1000 cells/well), and cultured overnight in a 37° C., 5% CO2 cell incubator. 2) The drug was prepared into a 10 mM stock solution with dimethyl sulfoxide (DMSO). Prior to use, the stock solution was diluted in a ratio of […] with DMSO, and then diluted at a 3-fold gradient to obtain 9 serial concentrations. Then, each concentration of compound was further diluted in a ratio of 1:200 with the culture medium (to ensure that the DMSO concentration in the culture system was 0.1%), and two wells were set for each concentration. 20 μL of the diluted compound solution was added to the well of the cell culture (with a final concentration of 10 μM, 3.3 μM, 1.1 μM . . . ), and then the plate was gently tapped to thoroughly mix. In addition, the experiment included 3 negative control wells only containing cells and 3 blank control wells only containing culture medium (6 wells were each added with DMSO diluted in a ratio of 1:200 with 20 μL of culture medium). c. Result Detection: 1) After culturing for 6 days, 10 μL of CCK-8 was added to each well, and the plate was further incubated for 1 h in a 37° C., 5% CO2 cell incubator. 2) The absorbance (OD value) was measured at 450 nm with a multifunctional microplate reader. 3) The data was analyzed by the Dose-response-inhibition equation in the software GraphPad Prism5, and the IC50 value was obtained. 2. Biological assay of the inhibition on the proliferation of other drug-resistant prostate cancer cells
# The same test method was used to determine the inhibitory activity of the compound according to the present invention against drug-resistant prostate cancer cell 22RV1.
# [1] = 144 h, LNCaP/AR cells, 6 days culture, CCK-8
SMILES,IC50 (LNCaP/AR cells; [1]),IC50 (22RV1 cells; Homo sapiens),"IC50 (LNCaP/AR cells; LNCaP/AR, 144 h)","IC50 (LNCaP/AR cells; LNCaP/AR cells, 6 days culture, CCK-8)",IC50 (22RV1 cells)
"Cc1ccc(-c2c(C)noc2C)cc1N(CC1(COC2CN(c3cc4c(cc3F)C(=O)N(C3CCC(=O)NC3=O)C4=O)C2)CC1)c1ccc(C2(C#N)CC2)cc1 (stereo not shown) [Compound 138, 1-(4-((5-(3,5-dimethylisoxazol-4-yl)-2-methylphenyl)((1-(((1-(2-(2,6-dioxopiperidin-3-yl)-6-fluoro-1,3-dioxoisoindolin-5-yl)azetidin-3-yl)oxy)methyl)cyclopropyl)methyl)amino)phenyl)cyclopropane-1-nitrile]",101 to 500 nM,> 2000 nM,,,
"Cc1ccc(-c2c(C)noc2C)cc1N(CCOC1(C)CN(c2cc3c(cc2F)CN(C2CCC(=O)NC2=O)C3=O)C1)c1ccc(C2(C#N)CC2)cc1 (stereo not shown) [Compound 112, 1-(4-((5-(3,5-Dimethylisoxazol-4-yl)-2-methylphenyl)(2-((1-(2-(2,6-dioxopiperidin-3-yl)-6-fluoro-3-oxoisoindolin-5-yl)-3-methylazetidin-3-yl)oxy)ethyl)amino)phenyl)cyclopropanecarbonitrile]",> 2000 nM,> 2000 nM,,,
"Cc1ccc(-c2c(C)noc2C)cc1N(CCCOC1CN(c2ccc3c(c2)C(=O)N(C2CCC(=O)NC2=O)C3)C1)c1ccc(C2(C#N)CC2)cc1 (stereo not shown) [Compound 121, 1-(4-((5-(3,5-dimethylisoxazol-4-yl)-2-methylphenyl)(3-((1-(2-(2,6-dioxopiperidin-3-yl)-3-oxoisoindolin-5-yl)azetidin-3-yl)oxy)propyl)amino)phenyl)cyclopropane-1-nitrile]",101 to 500 nM,< 100 nM,,,
"Cc1ccc(-c2c(C)noc2C)cc1N(CCOC1(C)CN(c2ccc3c(c2)C(=O)N(C2CCC(=O)NC2=O)C3=O)C1)c1ccc(C2(C#N)CC2)cc1 (stereo not shown) [Compound 110, 1-(4-((5-(3,5-Dimethylisoxazol-4-yl)-2-methylphenyl)(2-((1-(2-(2,6-dioxopiperidin-3-yl)-1,3-dioxoisoindolin-5-yl)-3-methylazetidin-3-yl)oxy)ethyl)amino)phenyl)cyclopropanecarbonitrile]",> 2000 nM,> 2000 nM,,,
Cc1ccc(-c2c(C)noc2C)cc1N(c1ccc(C2(C#N)CC2)cc1)C1CN(C2CCN(c3ccc4c(c3)C(=O)N(C3CCC(=O)NC3=O)C4=O)CC2)C1 (stereo not shown) [Compound 66],101 to 500 nM,< 100 nM,,,
"Cc1ccc(-c2c(C)noc2C)cc1N(CC1CN([C@H]2C[C@@H](Nc3cc4c(cc3F)C(=O)N(C3CCC(=O)NC3=O)C4=O)C2)C1)c1ccc(C2(C#N)CC2)cc1 (stereo partly shown) [Compound 71, 1-(4-((5-(3,5-dimethylisoxazol-4-yl)-2-methylphenyl)((1-((1s,3s)-3-((2-(2,6-dioxopiperidin-3-yl)-6-fluoro-1,3-dioxoisoindolin-5-yl)amino)cyclobutyl)azetidin-3-yl)methyl)amino)phenyl)cyclopropane-1-nitrile]",> 2000 nM,> 2000 nM,,,
"Cc1ccc(-c2c(C)noc2C)cc1N(CCC(C)CCNc1cc2c(cc1F)C(=O)N(C1CCC(=O)NC1=O)C2)c1ccc(C2(C#N)CC2)cc1 (stereo not shown) [Compound 191, 1-(4-((5-(3,5-dimethylisoxazol-4-yl)-2-methylphenyl)(5-((2-(2,6-dioxopiperidin-3-yl)-6-fluoro-1-oxoisoindolin-5-yl)amino)-3-methylpentanyl)amino)phenyl)cyclopropane-1-carbonitrile]",> 2000 nM,501 to 2000 nM,,,
Cc1ccc(-c2c(C)noc2C)cc1N(C[C@H]1C[C@@H]1CNc1ccc2c(c1)C(=O)N(C1CCC(=O)NC1=O)C2)c1ccc(C2(C#N)CC2)cc1 (stereo partly shown) [Compound 186],> 2000 nM,> 2000 nM,,,
"Cc1ccc(-c2c(C)noc2C)cc1N(CCCCNc1cc2c(cc1F)C(=O)N(C1CCC(=O)NC1=O)C2=O)c1ccc(C#N)c(Cl)c1 (stereo not shown) [Compound 164, 2-Chloro-4-((5-(3,5-dimethylisoxazol-4-yl)-2-methylphenyl)(4-((2-(2,6-dioxopiperidin-3)-6-fluoro-1,3-dioxyisoindolin-5-yl)amino)butyl)amino)benzonitrile]",,> 2000 nM,501 to 2000 nM,,
"Cc1ccc(-c2c(C)noc2C)cc1N(c1ccc(C2(C#N)CC2)cc1)C1CN(c2ccc3c(c2)C(=O)N(C2CCC(=O)NC2=O)C3=O)C1 (stereo not shown) [Compound 35, 1-(4-((5-(3,5-Dimethylisoxazol-4-yl)-2-methylphenyl)(1-(2-(2,6-dioxopiperidin-3-yl)-1,3-dioxoisoindolin-5-yl)azetidin-3-yl)amino)phenyl)cyclopropane-1-nitrile]",> 2000 nM,> 2000 nM,,,
"Cc1ccc(-c2c(C)noc2C)cc1N(CCCNc1cc2c(cc1F)C(=O)N(C1CCC(=O)NC1=O)C2)c1ccc(C2(C#N)CC2)cc1 (stereo not shown) [Compound 176, 1-(4-((5-(3,5-dimethylisoxazol-4-yl)-2-methylphenyl)(3-((2-(2,6-dioxopiperidin-3-yl)-6-fluoro-1-oxoisoindolin-5-yl)amino)propyl)amino)phenyl)cyclopropane-1-nitrile]",< 100 nM,> 2000 nM,,,
"Cc1ccc(-c2c(C)noc2C)cc1N(CCCCNc1cc2c(cc1F)CN(C1CCC(=O)NC1=O)C2=O)c1ccc(C#N)c(Cl)c1 (stereo not shown) [Compound 166, 2-Chloro-4-((5-(3,5-dimethylisoxazol-4-yl)-2-methylphenyl)(4-((2-(2,6-dioxopiperidin-3)-6-fluoro-3-isoindolinone-5-yl)amino)butyl)amino)benzonitrile]",,< 100 nM,101 to 500 nM,,
"Cc1ccc(-c2c(C)noc2C)cc1N(CC1CCC(CNc2ccc3c(c2)C(=O)N(C2CCC(=O)NC2=O)C3)CC1)c1ccc(C#N)c(Cl)c1 (stereo not shown) [Compound 134, 2-Chloro-4-((5-(3,5-dimethylisoxazol-4-yl)-2-methylphenyl)((1r,4r)-4-((2-(2,6-dioxopiperidin-3-yl)-3-oxoisoindolin-5-yl)amino)methyl)cyclohexyl)methyl)amino)benzonitrile]",,< 100 nM,101 to 500 nM,,
"Cc1ccc(-c2c(C)noc2C)cc1N(CC1CN(C2CCN(c3cc4c(cc3F)C(=O)N(C3CCC(=O)NC3=O)C4=O)CC2)C1)c1ccc(C2(C#N)CC2)cc1 (stereo not shown) [Compound 139, 1-(4-((5-(3,5-dimethylisoxazol-4-yl)-2-methylphenyl)((1-(1-(2-(2,6-dioxopiperidin-3-yl)-6-fluoro-1,3-dioxoisoindolin-5-yl)piperidin-4-yl)azetidin-3-yl)methyl)amino)phenyl)cyclopropane-1-carbonitrile]",> 2000 nM,> 2000 nM,,,
"Cc1ccc(-c2c(C)noc2C)cc1N(CC1CCC(Nc2cc3c(cc2F)CN(C2CCC(=O)NC2=O)C3=O)CC1)c1ccc(C2(C#N)CC2)cc1 (stereo not shown) [Compound 162, 1-(4-((5-(3,5-Dimethylisoxazol-4-yl)-2-methylphenyl)(((1s,4s)-4-((2-(2,6-dioxopiperidin-3)-6-fluoro-3-isoindolinone-5-yl)amino)cyclohexyl)methyl)amino)phenyl)phenylcyclopropanecarbonitrile]",,,,101 to 500 nM,> 2000 nM
"Cc1ccc(-c2c(C)noc2C)cc1N(CCN1CCN(c2ccc3c(c2)C(=O)N(C2CCC(=O)NC2=O)C3=O)CC1)c1ccc(C2(C#N)CC2)cc1 (stereo not shown) [Compound 64, 1-(4-((5-(3,5-Dimethylisoxazol-4-yl)-2-methylphenyl)(2-(4-(2-(2,6-dioxopiperidin-3-yl)-1,3-dioxoisoindolin-5-yl)piperazin-1-yl)ethyl)amino)phenyl)cyclopropane-1-nitrile]",501 to 2000 nM,< 100 nM,,,
"Cc1ccc(-c2c(C)noc2C)cc1N(CC1CCC(CNc2ccc3c(c2)CN(C2CCC(=O)NC2=O)C3=O)CC1)c1ccc(C#N)c(Cl)c1 (stereo not shown) [Compound 133, 2-Chloro-4-((5-(3,5-dimethylisoxazol-4-yl)-2-methylphenyl)((1r,4r)-4-((2-(2,6-dioxopiperidin-3-yl)-1-oxoisoindolin-5-yl)amino)methyl)cyclohexyl)methyl)amino)benzonitrile]",,< 100 nM,< 100 nM,,
